Activity calls are given as the source filed them. The rule behind the calls is not given here.
What was measured:
[1] = tested on: U-251; assay: Growth inhibition of human U251 cells after 48 hrs by sulforhodamine B colorimetric assay; assay type: functional; conditions: U-251, 48 h
[2] = tested on: MCF7; assay: Growth inhibition of human MCF7 cells after 48 hrs by sulforhodamine B colorimetric assay; assay type: functional; conditions: MCF7, 48 h
[3] = Growth inhibition of human MKN45 cells after 48 hrs by sulforhodamine B colorimetric assay; assay type: functional; conditions: MKN-45, 48 h
[4] = tested on: MDA-MB-231; assay: Growth inhibition of human MDA-MB-231 cells after 48 hrs by sulforhodamine B colorimetric assay; assay type: functional; conditions: MDA-MB-231, 48 h
[5] = Growth inhibition of human MKN74 cells after 48 hrs by sulforhodamine B colorimetric assay; assay type: functional; conditions: MKN-74, 48 h
[6] = tested on: A549; assay: Growth inhibition of human A549 cells after 48 hrs by sulforhodamine B colorimetric assay; assay type: functional; conditions: A549, 48 h
[7] = tested on: DU-145; assay: Growth inhibition of human DU145 cells after 48 hrs by sulforhodamine B colorimetric assay; assay type: functional; conditions: DU-145, 48 h
[8] = Growth inhibition of human HCC2998 cells after 48 hrs by sulforhodamine B colorimetric assay; assay type: functional; conditions: HCC 2998, 48 h
[9] = tested on: NCI-H226; assay: Growth inhibition of human NCI-H226 cells after 48 hrs by sulforhodamine B colorimetric assay; assay type: functional; conditions: NCI-H226, 48 h
[10] = tested on: HT-29; assay: Growth inhibition of human HT-29 cells after 48 hrs by sulforhodamine B colorimetric assay; assay type: functional; conditions: HT-29, 48 h
[11] = Growth inhibition of human MKN28 cells after 48 hrs by sulforhodamine B colorimetric assay; assay type: functional; conditions: MKN-28, 48 h
[12] = Growth inhibition of human PC3 cells after 48 hrs by sulforhodamine B colorimetric assay; assay type: functional; conditions: PC-3, 48 h
[13] = tested on: ACHN; assay: Growth inhibition of human ACHN cells after 48 hrs by sulforhodamine B colorimetric assay; assay type: functional
[14] = tested on: NCI-H522; assay: Growth inhibition of human NCI-H522 cells after 48 hrs by sulforhodamine B colorimetric assay; assay type: functional; conditions: NCI-H522, 48 h
[15] = tested on: NCI-H460; assay: Growth inhibition of human NCI-H460 cells after 48 hrs by sulforhodamine B colorimetric assay; assay type: functional; conditions: NCI-H460, 48 h
[16] = Growth inhibition of human OVCAR3 cells after 48 hrs by sulforhodamine B colorimetric assay; assay type: functional; conditions: OVCAR-3, 48 h
[17] = tested on: SK-OV-3; assay: Growth inhibition of human SKOV3 cells after 48 hrs by sulforhodamine B colorimetric assay; assay type: functional; conditions: SK-OV-3, 48 h
[18] = Growth inhibition of human RXF631L cells after 48 hrs by sulforhodamine B colorimetric assay; assay type: functional; conditions: RXF 631, 48 h
[19] = Growth inhibition of human SF295 cells after 48 hrs by sulforhodamine B colorimetric assay; assay type: functional; conditions: SF-295, 48 h
[20] = Growth inhibition of human LOXIMVI cells after 48 hrs by sulforhodamine B colorimetric assay; assay type: functional; conditions: LOX IMVI
[21] = Growth inhibition of human DMS273 cells after 48 hrs by sulforhodamine B colorimetric assay; assay type: functional; conditions: DMS-273, 48 h
[22] = tested on: SNB-75; assay: Growth inhibition of human SNB75 cells after 48 hrs by sulforhodamine B colorimetric assay; assay type: functional; conditions: SNB-75, 48 h
[23] = tested on: SF-268; assay: Growth inhibition of human SF268 cells after 48 hrs by sulforhodamine B colorimetric assay; assay type: functional; conditions: SF-268, 48 h
[24] = Growth inhibition of human OVCAR8 cells after 48 hrs by sulforhodamine B colorimetric assay; assay type: functional; conditions: OVCAR-8, 48 h
[25] = Growth inhibition of human OVCAR5 cells after 48 hrs by sulforhodamine B colorimetric assay; assay type: functional; conditions: OVCAR-5, 48 h
[26] = Growth inhibition of human OVCAR4 cells after 48 hrs by sulforhodamine B colorimetric assay; assay type: functional; conditions: OVCAR-4, 48 h
[27] = tested on: KM12; assay: Growth inhibition of human KM12 cells after 48 hrs by sulforhodamine B colorimetric assay; assay type: functional; conditions: KM12, 48 h
[28] = tested on: St-4; assay: Growth inhibition of human St-4 cells after 48 hrs by sulforhodamine B colorimetric assay; assay type: functional; conditions: St-4, 48 h
[29] = Growth inhibition of human MKN1 cells after 48 hrs by sulforhodamine B colorimetric assay; assay type: functional; conditions: MKN-1, 48 h
[30] = Growth inhibition of human SF539 cells after 48 hrs by sulforhodamine B colorimetric assay; assay type: functional; conditions: SF-539, 48 h
[31] = Growth inhibition of human HCT116 cells after 48 hrs by sulforhodamine B colorimetric assay; assay type: functional; conditions: HCT-116, 48 h
[32] = Growth inhibition of human HBC4 cells after 48 hrs by sulforhodamine B colorimetric assay; assay type: functional; conditions: HBC4, 48 h
[33] = Growth inhibition of human SNB78 cells after 48 hrs by sulforhodamine B colorimetric assay; assay type: functional; conditions: SNB-78, 48 h
[34] = Growth inhibition of human HCT15 cells after 48 hrs by sulforhodamine B colorimetric assay; assay type: functional; conditions: HCT-15, 48 h
[35] = Growth inhibition of human HBC5 cells after 48 hrs by sulforhodamine B colorimetric assay; assay type: functional; conditions: HBC5, 48 h
[36] = Growth inhibition of human BSY1 cells after 48 hrs by sulforhodamine B colorimetric assay; assay type: functional; conditions: BSY-1, 48 h
[37] = Growth inhibition of human DMS114 cells after 48 hrs by sulforhodamine B colorimetric assay; assay type: functional; conditions: DMS-114, 48 h
[38] = Growth inhibition of human MKN7 cells after 48 hrs by sulforhodamine B colorimetric assay; assay type: functional; conditions: MKN-7, 48 h
[39] = tested on: NCI-H23; assay: Growth inhibition of human NCI-H23 cells after 48 hrs by sulforhodamine B colorimetric assay; assay type: functional; conditions: NCI-H23, 48 h
[40] = tested on: NCI-H23; assay: Antitumor activity against human NCI-H23 cells xenografted in mouse assessed as average tumor size on day 16 at 100 mg/kg, ip on day 0 and day 6 relative to control mouse; assay type: functional; conditions: route intraperitoneal
[41] = tested on: NCI-H23; assay: Antitumor activity against human NCI-H23 cells xenografted in mouse assessed as inhibition of tumor growth on day 16 at 100 mg/kg, ip on day 0 and day 6; assay type: functional, organism-based; set-up: dose 100 mg/kg
[42] = Toxicity in human NCI-H23 cells xenografted in mouse ip dosed on day 0 and day; assay type: organism-based; conditions: in vivo

Work on `CCCCCCCCCCCC[C@@H](O)[C@H]1CC[C@H]([C@H](O)CCCCCCCCCCNC(=O)c2cccs2)O1` yielded a GI50 [1] of 2000 nM, a GI50 [2] of 2190 nM and a GI50 [3] of 3310 nM. It also gave a GI50 [4] of 2570 nM, a GI50 [5] of 1510 nM and a GI50 [6] of 3720 nM. For the same compound, the GI50 [7] was 2690 nM, the GI50 [8] was 2000 nM and the GI50 [9] was 2090 nM. The GI50 [10] was 2190 nM, the GI50 [11] was 363 nM and the GI50 [12] was 2290 nM. The GI50 [13] was 2570 nM, the GI50 [14] was 1100 nM and the GI50 [15] was 2290 nM. The GI50 [16] was 42.7 nM, the GI50 [17] was 28800 nM and the GI50 [18] was 3240 nM. The GI50 [19] was 1410 nM, the GI50 [20] was 1290 nM and the GI50 [21] was 1820 nM. For the same compound, the GI50 [22] was 3390 nM, the GI50 [23] was 3980 nM and the GI50 [24] was 3020 nM. The GI50 [25] was 2510 nM, the GI50 [26] was 1820 nM and the GI50 [27] was 3090 nM. For the same compound, the GI50 [28] was 1820 nM, the GI50 [29] was 1820 nM and the GI50 [30] was 17000 nM. For the same compound, the GI50 [31] was 1290 nM, the GI50 [32] was 3390 nM and the GI50 [33] was 2290 nM. It also gave a GI50 [34] of 5750 nM, a GI50 [35] of 3240 nM and a GI50 [36] of 18200 nM. For the same compound, the GI50 [37] was 282 nM, the GI50 [38] was 269 nM and the GI50 [39] was 676 nM.

For `CCCCCCCCCCCC[C@@H](O)[C@H]1CC[C@H]([C@H](O)CCCCCCCCCCNC(=O)c2ccsc2)O1`, the GI50 [1] was greater than 100000 nM, the GI50 [2] was 2000 nM and the GI50 [3] was 3720 nM. The GI50 [4] was 4470 nM, the GI50 [5] was 1510 nM and the GI50 [6] was greater than 100000 nM. It also gave a GI50 [7] of 2190 nM, a GI50 [8] of 2190 nM and a GI50 [9] of 2400 nM. For the same compound, the GI50 [10] was 1910 nM, the GI50 [11] was 575 nM and the GI50 [12] was 1700 nM. The GI50 [13] was 3890 nM, the GI50 [14] was 1000 nM and the GI50 [15] was 4900 nM. The GI50 [16] was 1700 nM, the GI50 [17] was greater than 100000 nM and the GI50 [18] was greater than 100000 nM. It also gave a GI50 [19] of 1000 nM, a GI50 [20] of 1510 nM and a GI50 [21] of 2000 nM. The GI50 [22] was 2820 nM, the GI50 [23] was greater than 100000 nM and the GI50 [24] was 1910 nM. It also gave a GI50 [25] of 2690 nM, a GI50 [26] of 1700 nM and an Activity [40] of 16%. For the same compound, the GI50 [27] was 3020 nM, the inhibition [41] was “Active” and the GI50 [28] was 1700 nM. The GI50 [29] was 2290 nM, the GI50 [30] was greater than 100000 nM and the GI50 [31] was 1290 nM. The GI50 [32] was greater than 100000 nM, the GI50 [33] was greater than 100000 nM and the GI50 [34] was 38000 nM. The GI50 [35] was 2090 nM, the GI50 [36] was 3020 nM and the GI50 [37] was 170 nM. For the same compound, the GI50 [38] was 170 nM and the GI50 [39] was 200 nM.

`CCCCCCCCCCCC[C@@H](O)[C@H]1CC[C@H]([C@H](O)CCCCCCCCCCNC(=O)c2ccnn2C)O1` gave a GI50 [1] greater than 100000 nM, a GI50 [7] greater than 100000 nM and a GI50 [8] greater than 100000 nM. For the same compound, the GI50 [10] was greater than 100000 nM, the GI50 [17] was greater than 100000 nM and the GI50 [18] was greater than 100000 nM. The GI50 [19] was 10000 nM, the GI50 [22] was 50100 nM and the GI50 [23] was greater than 100000 nM. It also gave a GI50 [25] greater than 100000 nM, an MTD [42] of 5 mg/kg and a GI50 [27] greater than 100000 nM. It also gave a GI50 [32] greater than 100000 nM, a GI50 [33] greater than 100000 nM and a GI50 [34] greater than 100000 nM.

— ChEMBL document CHEMBL3351417, “Thiophene-3-carboxamide analogue of annonaceous acetogenins as antitumor drug lead” (Eur J Med Chem, 2014)
